Holding throughout (type): functional
The species named for test [1] is Mus musculus. The experiment in a line: Effect on whole mouse brain choline level after 1 day (control = 100+/-1).
The species named for test [2] is Mus musculus. The experiment in a line: Effect on whole mouse brain 5-HT acid level after 1 day (control = 100+/-3).
For test [3], the species on record is Mus musculus. The experiment in a line: Effect on whole mouse brain DOPAC level after 1 day (control = 100+/-4).
The species named for test [4] is Mus musculus. The experiment in a line: Effect on whole mouse brain dopamine level after 1 day (control = 100+/-3).
The species entered for test [5] is Mus musculus. The experiment in a line: Effect on whole mouse brain norepinephrine level after 1 day (control = 100+/-5).
The species named for test [6] is Mus musculus. The experiment in a line: Effect on whole mouse brain homovanillic acid level after 1 day (control = 100+/-4).
For test [7], the species on record is Mus musculus. The experiment in a line: Effect on whole mouse brain 5-hydroxyindoleacetic acid level after 1 day (control = 100+/-6).
For test [8], the species on record is Mus musculus. The experiment in a line: Effect on whole mouse brain acetylcholine level after 1 day (control = 100+/-8).
For test [9], the species on record is Mus musculus. The experiment in a line: Effect on whole mouse brain 5-HT acid level after 1 day (control = 100+/-2).
For test [10], the species on record is Mus musculus. The experiment in a line: Effect on whole mouse brain choline level after 1 week (control = 100+/-9).
The species entered for test [11] is Mus musculus. The experiment in a line: Effect on whole mouse brain choline level after 1 day (control = 100+/-9).
Test [12] is filed under the species Mus musculus. The experiment in a line: Effect on whole mouse brain homovanillic acid level after 1 day (control = 100+/-3).
For test [13], the species on record is Mus musculus. The experiment in a line: Effect on whole mouse brain 5-hydroxyindoleacetic acid level after 3h (control = 100+/-14).
For test [14], the species on record is Mus musculus. The experiment in a line: Effect on whole mouse brain 5-HT acid level after 1 week (control = 100+/-9).
For test [15], the species on record is Mus musculus. The experiment in a line: Effect on whole mouse brain 5-HT acid level after 3h (control = 100+/-6).
The species entered for test [16] is Mus musculus. The experiment in a line: Effect on whole mouse brain norepinephrine level after 1 day (control = 100+/-3).
The species entered for test [17] is Mus musculus. The experiment in a line: Effect on whole mouse brain 5-hydroxyindoleacetic acid level after 1 week (control = 100+/-10).
The species entered for test [18] is Mus musculus. The experiment in a line: Effect on whole mouse brain DOPAC level after 1 week (control = 100+/-9).
Test [19] is filed under the species Mus musculus. The experiment in a line: Effect on whole mouse brain homovanillic acid level after 1 week (control = 100+/-5).
Test [20] is filed under the species Mus musculus. The experiment in a line: Effect on whole mouse brain acetylcholine level after 3h (control = 100+/-5).
The species entered for test [21] is Mus musculus. The experiment in a line: Effect on whole mouse brain DOPAC level after 1 day (control = 100+/-6).
The species entered for test [22] is Mus musculus. The experiment in a line: Effect on whole mouse brain DOPAC level after 3h (control = 100+/-11).
For test [23], the species on record is Mus musculus. The experiment in a line: Effect on whole mouse brain homovanillic acid level after 3h (control = 100+/-6).
Test [24] is filed under the species Mus musculus. The experiment in a line: Effect on whole mouse brain norepinephrine level after 1 week (control = 100+/-10).
For test [25], the species on record is Mus musculus. The experiment in a line: Effect on whole mouse brain acetylcholine level after 1 week (control = 100+/-13).
The species entered for test [26] is Mus musculus. The experiment in a line: Effect on whole mouse brain dopamine level after 1 week (control = 100+/-10).
The species entered for test [27] is Mus musculus. The experiment in a line: Effect on whole mouse brain choline level after 3h (control = 100+/-5).
Test [28] is filed under the species Mus musculus. The experiment in a line: Effect on whole mouse brain dopamine level after 3h (control = 100+/-3).
Test [29] is filed under the species Mus musculus. The experiment in a line: Effect on whole mouse brain acetylcholine level after 1 day (control = 100+/-5).
Test [30] is filed under the species Mus musculus. The experiment in a line: Effect on whole mouse brain norepinephrine level after 3h (control = 100+/-8).
The species entered for test [31] is Mus musculus. The experiment in a line: Effect on whole mouse brain 5-hydroxyindoleacetic acid level after 1 day (control = 100+/-5).

For three compounds, Control results are on record in ChEMBL document CHEMBL1126027, “Oxidation chemistry and biochemistry of the central mammalian alkaloid 1-methyl-6-hydroxy-1,2,3,4-tetrahydro-beta-carboline” (1992).

As for `CC1NCCc2c1[nH]c1ccc(O)c(-c3c(O)ccc4[nH]c5c(c34)CCNC5C)c21` (stereo in doubt; 5), the Control in the test filed under Mus musculus [1] came out at 77%; in the test listed under Mus musculus [2], 94%; in the test listed under Mus musculus [3], 97%; in the test listed under Mus musculus [4], 90%; in the test listed under Mus musculus [5], 102%; in the test filed under Mus musculus [6] it was 115%. Moreover, the Control in the test listed under Mus musculus [7] stood at 146%; in the test listed under Mus musculus [8], 87%.

Consider `CC1NCCc2c1[nH]c1ccc(O)c(-c3c(O)ccc4[nH]c5c(c34)CCNC5C)c21` (stereo in doubt; 6), for which the Control in the test listed under Mus musculus [1] was 97%; in the test filed under Mus musculus [2], 107%; in the test listed under Mus musculus [3], 101%; in the test filed under Mus musculus [4], 96%; in the test listed under Mus musculus [5], 104%; in the test listed under Mus musculus [6], 132%. For the same compound, the Control was determined as 163% in the test listed under Mus musculus [7] and 73% in the test filed under Mus musculus [8].

In the case of `CC1NCCc2c1[nH]c1ccc(O)c(-c3c(O)ccc4[nH]c5c(c34)CCNC5C)c21` (centres undefined), the Control in the test listed under Mus musculus [9] is given as 111%; in the test filed under Mus musculus [10], 107%; in the test listed under Mus musculus [11], 97%; in the test listed under Mus musculus [12], 107%; in the test listed under Mus musculus [13] it was 86%; in the test listed under Mus musculus [14], 103%. Also, the Control in the test listed under Mus musculus [15] turned out to be 107%; in the test listed under Mus musculus [16] it was 105%; in the test listed under Mus musculus [17], 99%; in the test filed under Mus musculus [18], 96%; in the test listed under Mus musculus [19], 100%; in the test listed under Mus musculus [20], 98%. Moreover, the Control is on record as 93% in the test listed under Mus musculus [21]; 81% in the test listed under Mus musculus [22]; 90% in the test filed under Mus musculus [23]; 111% in the test listed under Mus musculus [24]; 94% in the test filed under Mus musculus [25]; 98% in the test listed under Mus musculus [26]. The Control came to 83% in the test listed under Mus musculus [27]; 98% in the test listed under Mus musculus [28]; 78% in the test filed under Mus musculus [29]; 93% in the test listed under Mus musculus [30]; 135% in the test listed under Mus musculus [31].
